Measured values: PubChem BioAssay (NCI)
“And” between values parts separate entries of the source, which are not always exact repeats. Equal values may be shown once.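 Five concentrations, 48 hours, 96-well plates. GI50 marks 50% less growth. At the TGI there is no net growth.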 Where a SMILES comes first, the peptide text is derived from it. [ ]: non-standard residue; d: D form. The star is where a group is joined. ξ: configuration not given here. X6 = FC(F)(F)c1cc(NC(=S)*)cc(C(F)(F)F)c1; ξF = NC(Cc1ccccc1)C(=O)O

What was measured:
Assay in all cases: NCI anticancer screen, dose series, 48 h
OVCAR-5 ovarian = test system: OVCAR-5 ovarian
COLO 205 colon = test system: COLO 205 colon
A549 NSCLC = test system: A549 NSCLC
CCRF-CEM leukemia = test system: CCRF-CEM leukemia
KM12 colon = test system: KM12 colon
HOP-62 NSCLC = test system: HOP-62 NSCLC
SR leukemia = test system: SR leukemia
HCC-2998 colon = test system: HCC-2998 colon
UACC-257 melanoma = test system: UACC-257 melanoma
SK-MEL-2 melanoma = test system: SK-MEL-2 melanoma

| SMILES | GI50 (OVCAR-5 ovarian) | TGI (OVCAR-5 ovarian) | GI50 (COLO 205 colon) | TGI (COLO 205 colon) | GI50 (A549 NSCLC) | TGI (A549 NSCLC) [µM] | GI50 (CCRF-CEM leukemia) | TGI (CCRF-CEM leukemia) [µM] | GI50 (KM12 colon) | TGI (KM12 colon) | GI50 (HOP-62 NSCLC) | TGI (HOP-62 NSCLC) | GI50 (SR leukemia) | GI50 (HCC-2998 colon) | TGI (HCC-2998 colon) [µM] | GI50 (UACC-257 melanoma) | TGI (UACC-257 melanoma) | GI50 (SK-MEL-2 melanoma) | TGI (SK-MEL-2 melanoma) | TGI (SR leukemia) [µM] |
| --- | --- | --- | --- | --- | --- | --- | --- | --- | --- | --- | --- | --- | --- | --- | --- | --- | --- | --- | --- | --- |
| COc1ccc2c(c1)/C(=C/c1c(C)nc3sc(C)nn13)C(=O)N2 | 9.28 µM | > 100 µM | 0.614 µM | 4.96 µM | 7.74 µM | > 100 | 2.52 µM | > 100 | 0.42 µM | > 54.6 µM | 4.35 µM | 61.9 µM | 0.31 µM | 0.632 µM | 7.86 | > 100 µM | > 100 µM | 1.29 µM | 4.63 µM |  |
| CO[C@H](C(=O)[C@@H](O)[C@@H](C)O)[C@@H]1Cc2cc3cc(O[C@H]4C[C@@H](O[C@H]5C[C@@H](O)[C@H](O)C(C)O5)[C@H](O)C(C)O4)c(C)c(O)c3c(O)c2C(=O)[C@H]1O[C@H]1C[C@@H](O[C@H]2C[C@@H](O[C@H]3C[C@](C)(O)C(=O)C(C)O3)[C@@H](O)C(C)O2)[C@H](O)C(C)O1 (stereo partly specified) | 0.115 µM | > 22.1 µM | 0.053 µM | 0.459 µM | 0.106 µM | > 33.2 | 0.211 µM | > 33.2 | 0.0672 µM | 6.67 µM | 0.0653 µM |  | 0.0385 µM | 0.222 µM | 1.72 | 0.0995 µM | 2.27 µM | 0.059 µM | 0.156 µM | > 33.2 |
| NC(=O)c1cccc2cn(-c3ccc([C@@H]4CCCNC4)cc3)nc12 | 24 µM | 64.8 µM | 13.5 µM | 28.6 µM | 13.1 µM | 28 | 5.54 µM | 97.7 | 15.7 µM | 30.6 µM | 8.44 µM | 27.8 µM | 1.94 µM | 14.1 µM | 34.3 | 15.8 µM | 30.7 µM | 19.7 µM | 39.3 µM | 12.5 |
| COC1=CC(c2ccc[nH]2)=N/C1=C\c1[nH]c(C)c(C(=O)OC(C)C)c1C | 0.144 µM | 1.95 µM | 0.0733 µM | 1.46 µM | 0.0505 µM | 1.05 | 0.0316 µM | > 100 | 0.0439 µM | 1.8 µM | 0.123 µM | 1.84 µM | 0.0257 µM | 0.0485 µM | 1.36 | 0.0898 µM | 1.87 µM | 0.02 µM | 0.0525 µM | 0.291 |
| CN/N=C(/Cc1occc(=O)c1O)C(=O)Nc1ccccc1C |  | > 100 µM |  | > 100 µM |  | > 100 |  | > 100 |  | > 100 µM |  | > 100 µM |  |  | > 100 |  | > 100 µM |  | > 100 µM | > 100 |
| CN(C)CC[N+]1=Nc2cccc3cccc(c23)N1 |  | > 100 µM |  | > 71.2 µM |  | > 100 |  | > 67.3 |  | > 100 µM |  | > 100 µM |  |  | > 100 |  | > 100 µM |  | > 100 µM | 40.9 |
| O=C(CC1(O)C(=O)Nc2c(Cl)cc(Cl)cc21)c1ccc(Br)cc1Br (stereo unspecified) |  | 31.9 µM |  | 16.9 µM |  | 57.4 |  | 3.21 |  | 27.9 µM |  | 36.5 µM |  |  | 30.6 |  | 22.9 µM |  | 28.9 µM | > 22 |
| CC(=O)NNc1nc(C)c(C(=O)NNC(=O)C(=O)Nc2ccc(Cl)cc2)s1 |  | > 100 µM |  | > 100 µM |  | > 100 |  | > 100 |  | > 100 µM |  | > 100 µM |  |  | > 100 |  | > 100 µM |  | > 100 µM | > 100 |
| C=C1C(=O)C23CC1CCC2C12CO[C@@H]4OCC(C)(CC[C@@H]1OC3=O)C42 (stereo partly specified) |  | 29.2 µM |  | 4.34 µM |  | 25.1 |  | 12.1 |  | 17.3 µM |  | 43.4 µM |  |  | 30.9 |  | 10.2 µM |  | 16.9 µM | 26.4 |
| Cn1cnc([N+](=O)[O-])c1Sc1nnc(-c2cccnc2)n1C |  | > 100 µM |  | 28.9 µM |  | > 100 |  | 45 |  | > 100 µM |  | > 100 µM |  |  | 67.1 |  | 23 µM |  | 46.1 µM | 45.5 |
| COc1ccc(-c2nc3sccn3c2/C(N)=N/C(=N)N)cc1OC | 78 µM | > 100 µM | 56.6 µM | > 100 µM | > 100 µM | > 100 | 38.4 µM | > 100 | 24.7 µM | 81.8 µM | 24.6 µM | 58.3 µM | 30.5 µM | 43.1 µM | > 100 | 40.7 µM | > 100 µM | 29.4 µM | > 100 µM | 77.3 |
| Cc1coc2c1CC1(C)C(CCC(O)C1C)C2 (stereo unspecified) |  | > 100 µM |  | > 100 µM |  | > 100 |  | > 100 |  | > 100 µM |  | > 100 µM |  |  | > 100 |  | > 100 µM |  | > 100 µM | > 100 |
| COC(=O)[C@@H](NC(=O)CNC(=O)[C@H]1CCCN1C(=O)C(Cc1ccccc1)NC(=S)Nc1cc(C(F)(F)F)cc(C(F)(F)F)c1)C(C)C (stereo partly specified) (X6-[ξF][dP]GV-OMe) | 1.93 µM | 3.64 µM | 1.87 µM | 3.32 µM | 3.03 µM | 14.4 | 3.17 µM | 35.1 | 2.88 µM | 7.75 µM | 1.92 µM | 3.62 µM | 2.57 µM | 3.39 µM | 11.9 | 2.14 µM | 5.75 µM | 2.86 µM | 6.86 µM | 8.58 |
| CCOC(=O)[C@]1(OC(C)=O)C[C@H](OC(C)=O)[C@@H](C(F)COP(=O)(OCc2ccccc2)OCc2ccccc2)O1 (stereo partly specified) | 32.7 µM and > 100 µM | 95 µM and > 100 µM | 19.4 µM and > 100 µM | 36.3 µM and > 100 µM |  | > 100 |  | > 100 | 19.3 µM and > 100 µM | 41.2 µM and > 100 µM |  | > 100 µM | 30.2 µM and > 100 µM |  | > 100 |  | > 100 µM | 25 µM and > 100 µM | 78.4 µM and > 100 µM | > 100 |
| COC1CCC(N2C(=O)CNc3ncc(-c4ccc(C(C)(C)O)nc4)nc32)CC1 (stereo unspecified) | 0.918 µM and 0.273 µM | > 44.8 µM | 1.03 µM and 0.176 µM | > 8.63 µM and 9.06 µM | 1.48 µM and 0.337 µM | > 34.5 | 1.41 µM and 0.738 µM | > 100 | 1.2 µM and 0.302 µM | > 40.8 µM | 1.92 µM and 0.437 µM | > 10 µM and 14.5 µM | 1.06 µM and 0.331 µM | 1.98 µM and 0.306 µM | > 39.2 | 0.649 µM and 0.195 µM | 5.23 µM and 3.83 µM | 0.772 µM and 0.183 µM | 3.69 µM and 1.48 µM | > 47.2 |
| CC(C)CCC[C@@H](C)[C@H]1CC[C@H]2[C@@H]3CC=C4C[C@@H](C(C(=O)O)C(=O)O)CC[C@]4(C)[C@H]3CC[C@]12C | 0.198 µM | 5.56 µM | 0.111 µM | 0.247 µM | 0.145 µM | 0.547 | 0.112 µM | 0.913 | 0.117 µM | 0.292 µM | 0.176 µM | 0.747 µM | 0.135 µM | 0.185 µM | 1.28 | 0.133 µM | 0.639 µM | 0.224 µM | 0.613 µM | 1.63 |
| O=C1C(Cl)=C(Nc2cccc(Cl)c2)C(=O)N1Cc1ccc(Cl)cc1Cl | 11.6 µM | 37.1 µM | 1 µM | 16 µM | 3.85 µM | 19.6 | 4.38 µM | > 100 | 7.89 µM | 39.2 µM | 5.61 µM | 22.8 µM |  | 4.23 µM | 18.8 | 5.94 µM | 24.8 µM | 1.6 µM |  | 8.9 |
| O=C1C(=O)N(c2ccc(Cl)cc2Cl)C(=O)C(=O)C1c1nc2ccccc2s1 |  | > 100 µM |  | > 100 µM |  | > 100 |  | 88.9 |  | > 100 µM |  | > 100 µM |  |  | > 100 |  | > 100 µM |  | > 100 µM | 79.2 |
| Cc1ccc(C(=O)/C(=C/c2ccc([N+](=O)[O-])cc2)SCc2ccc(Cl)cc2)cc1 | 2.5 µM | 9.12 µM | 3.33 µM | 20.7 µM | 98.5 µM | > 100 | 0.283 µM | > 100 | 1.91 µM | 5.73 µM | 29.7 µM | > 100 µM | 0.325 µM | 1.67 µM | 3.37 | 9.77 µM | 34.2 µM | 15.8 µM | 63.2 µM | > 100 |
| COC1=CC(=O)c2nc(-c3ccncc3)[nH]c2C1=O | > 100 µM | > 100 µM | > 100 µM | > 100 µM | > 100 µM | > 100 | > 100 µM | > 100 | > 100 µM | > 100 µM | > 100 µM | > 100 µM | > 100 µM | > 100 µM | > 100 | > 100 µM | > 100 µM | > 100 µM | > 100 µM | > 100 |
